# Data: patent US20080293090A1, “AUTOMATED SEMI-SOLID MATRIX ASSAY AND LIQUID HANDLER APPARATUS FOR THE SAME” (AVENTIS PHARMACEUTICALS INC., priority 2001, published 2008)
# Counter-ions that a name gives are not always drawn.
# What was measured:
# Assay type in all cases: cell-based
# [1] = system: tumor cells; assay: Soft agar assay, hand-pipetted 24-well plates, Calcein AM stained method
# Procedure: (§1) 25 μL of 10 μM calcein AM (in HBSS) is added to each well and allowed to incubate at 37 deg. C. for at least one hour. […] The fluorescence for calcein AM (after cleavage in live cells) is excitation=485+20 nm and emission=530+20 nm. For analysis, the data provided by the CytoFluor™ are analyzed in EXCEL™. The DMSO control wells are averaged and the standard deviation determined. Each compound well is then divided by the control average×100 for % control. The triplicate wells are averaged and the standard deviation determined. There is some background fluorescence and the colonies treated after formation are not eliminated by the single two-week treatment. The background can be subtracted from each well. Statistical programs such as PRISM could also be used for the graphing and IC50 determination. […] As a comparison, the same compounds were tested in the traditional hand-pipetted, 24-well plates, visually counted method. The only difference was that the soft agar assay used a 500 μL agarose layer in the 24-well plate and 75 uL/layer in the 96-well system, using the Sigma agarose. The two methods produced similar results, i.e. IC50s for the compounds, see Table 4.
# [2] = system: tumor cells; assay: Automated soft agar assay, 96-well plates, Calcein AM stained method; conditions: read-out: IC50s (μM) with Flavopiridol 96-well
# Procedure: as §1, with “It was determined that when plating with the test compound, the individual components, i.e., agarose, cells and compound, were more evenly distributed if premixed in a separate plate before being transferred to the 96-well plate. The test compounds were made 10× in RPMI GM, which was diluted to a 1× compound concentration in the mixing plate. […] Satisfactory results were obtained with the following combinations: 25” for “25”
# [3] = system: tumor cells; assay: Traditional soft agar assay, 24-well tray, visual counting of colonies; conditions: for IC50: read-out: IC50s Determined from Colony Counting; for Average # of colonies: 24-well tray
# Procedure: As a comparison, the same compounds were tested in the traditional hand-pipetted, 24-well plates, visually counted method. The only difference was that the soft agar assay used a 500 μL agarose layer in the 24-well plate and 75 uL/layer in the 96-well system, using the Sigma agarose. The 24-well plates were also counted visually, Table 5, and the IC50s determined, Table 6.
# [4] = system: Colo 205; assay: Soft agar assay, flavopiridol on already formed one week colonies; conditions: Homo sapiens, 168 h, added to colonies formed after 7 days of incubation, read-out: Flavopiridol IC50 (uM) on Formed Colonies, Average ± Standard Error
# Procedure: (§2) 25 μL of 10 μM calcein AM (in HBSS) is added to each well and allowed to incubate at 37 deg. C. for at least one hour. The plate is then read in a Cytofluor™ 4000 (3 counts/well) with a gain of 40. The fluorescence for calcein AM (after cleavage in live cells) is excitation=485+20 nm and emission=530+20 nm.
# (§3) For analysis, the data provided by the CytoFluor™ are analyzed in EXCEL™. The DMSO control wells are averaged and the standard deviation determined. Each compound well is then divided by the control average×100 for % control. The triplicate wells are averaged and the standard deviation determined. […] The background can be subtracted from each well. Statistical programs such as PRISM could also be used for the graphing and IC50 determination.
# (§4) Flavopiridol is added to colonies formed after 7 days of incubation at 37 deg.
# [5] = system: MDA-MB435; assay: as above; conditions: Homo sapiens, MDA-MB-435, 168 h, added to colonies formed after 7 days of incubation, read-out: Flavopiridol IC50 (uM) on Formed Colonies, Average ± Standard Error
# Procedure: as §2, §3, §4
# [6] = system: HL-60; assay: as above; conditions: Homo sapiens, 168 h, added to colonies formed after 7 days of incubation, read-out: Flavopiridol IC50 (uM) on Formed Colonies, Average ± Standard Error
# Procedure: as §2
# (§5) For analysis, the data provided by the CytoFluor™ are analyzed in EXCEL™. The DMSO control wells are averaged and the standard deviation determined. Each compound well is then divided by the control average×100 for % control. The triplicate wells are averaged and the standard deviation determined. There is some background fluorescence and the colonies treated after formation are not eliminated by the single two-week treatment. The background can be subtracted from each well. Statistical programs such as PRISM could also be used for the graphing and IC50 determination.
# (§6) Table 7. provides the IC50 in micromolar values obtained using flavopiridol on already formed colonies of a number of different cell lines (one week colonies). Flavopiridol is added to colonies formed after 7 days of incubation at […]. This method of adding compounds to already formed colonies may be more predictive for the compound's effectiveness against a tumor in vivo.
# [7] = system: NCI-H460; assay: as above; conditions: Homo sapiens, 168 h, added to colonies formed after 7 days of incubation, read-out: Flavopiridol IC50 (uM) on Formed Colonies, Average ± Standard Error
# Procedure: as §2, §5, §6
# [8] = system: PC-3; assay: as above; conditions: Homo sapiens, 168 h, added to colonies formed after 7 days of incubation, read-out: Flavopiridol IC50 (uM) on Formed Colonies, Average ± Standard Error
# Procedure: as §2, §5, §6
# [9] = flavopiridol added immediately after plating
compound,measurement,setting,value
"CN1CC[C@H](c2c(O)cc(O)c3c(=O)cc(-c4ccccc4Cl)oc23)[C@H](O)C1 [Flavopiridol, (cis-(−)-5,7-Dihydroxy-2-(2-chlorophenyl)-8-[4-(3-hydroxy-1-methyl)piperidinyl]-4H-1-benzopyran-4-one hydrochloride dihydrate]",IC50,[1]; cells plated with flavopiridol,0.08 µM
same,IC50,[1]; [9],0.4 µM
same,IC50,"[2]; 168 h, flavopiridol added to one week colonies",1 µM
same,IC50,[2]; cells plated with flavopiridol,0.15 µM
same,IC50,[2]; [9],0.6 µM
same,IC50,"[3]; added immediately after plating, 24-well, visual counting",400 nM
same,IC50s Determined from Colony Counting,"[3]; added to 1-week colonies, 24-well, visual counting",did not reach 50% control.
same,Average # of colonies,"[3]; flavopiridol added immediately after plating, 0.00032 μM",30
same,Average # of colonies,"[3]; flavopiridol added immediately after plating, 0.0016 μM",30
same,Average # of colonies,"[3]; flavopiridol added immediately after plating, 0.008 μM",32
same,Average # of colonies,"[3]; flavopiridol added immediately after plating, 0.04 μM",26
same,Average # of colonies,"[3]; flavopiridol added immediately after plating, 0.2 μM",27
same,Average # of colonies,"[3]; flavopiridol added immediately after plating, 1 μM",0
same,Average # of colonies,"[3]; flavopiridol added immediately after plating, 5 μM",0
same,Average # of colonies,"[3]; flavopiridol added to one-week colonies, 0.0032 μM",34.0
same,Average # of colonies,"[3]; flavopiridol added to one-week colonies, 0.016 μM",35.0
same,Average # of colonies,"[3]; flavopiridol added to one-week colonies, 0.08 μM",32.0
same,Average # of colonies,"[3]; flavopiridol added to one-week colonies, 0.4 μM",33
same,Average # of colonies,"[3]; flavopiridol added to one-week colonies, 2 μM",25
same,Average # of colonies,"[3]; flavopiridol added to one-week colonies, 10 μM",32
same,Average # of colonies,"[3]; flavopiridol added to one-week colonies, 50 μM",20
same,IC50,"[3]; plated with Flavo, 24-well, visual counting",90 nM
same,Average # of colonies,"[3]; plated with flavopiridol, 0.00032 μM",27
same,Average # of colonies,"[3]; plated with flavopiridol, 0.0016 μM",25
same,Average # of colonies,"[3]; plated with flavopiridol, 0.008 μM",22
same,Average # of colonies,"[3]; plated with flavopiridol, 0.04 μM",25
same,Average # of colonies,"[3]; plated with flavopiridol, 0.2 μM",0
same,Average # of colonies,"[3]; plated with flavopiridol, 1 μM",0
same,Average # of colonies,"[3]; plated with flavopiridol, 5 μM",0
same,IC50,[4],1.4 ± 0.06 µM
same,IC50,[5],2.2 ± 0.09 µM
same,IC50,[6],1.6 ± 0.15 µM
same,IC50,[7],2.4 ± 0.1 µM
same,IC50,[8],1.7 ± 0.04 µM
